This is an account of results in ChEMBL document CHEMBL5500352, “ML162 derivatives incorporating a naphthoquinone unit as ferroptosis/apoptosis inducers: Design, synthesis, anti-cancer activity, and drug-resistance reversal evaluation” (Eur J Med Chem, 2024).

For series [1], the system named is HT-1080. Description: Induction of ferroptosis in human HT-1080 cells assessed as accumulation of lipid peroxidation at 1 to 4 uM after 12 hrs by BODIPYTM 581/591C11 probe based flow cytometry assay. Conditions: dose 1-4 µM. The format is functional, cell-based. Background: In flow cytometry, cells or beads pass a laser one at a time.
Series [2] relates to HT-1080. In words: Induction of ferroptosis in human HT-1080 cells assessed as accumulation of intracellular ROS level at 4 uM after 12 hrs by DCFH-DA staining based confocal laser scanning microscopy analysis. The format is functional, cell-based.
Series [3] addresses T1, Phospholipid hydroperoxide glutathione peroxidase GPX4 (Homo sapiens) (UniProt P36969).
T1 sequence (whole entry): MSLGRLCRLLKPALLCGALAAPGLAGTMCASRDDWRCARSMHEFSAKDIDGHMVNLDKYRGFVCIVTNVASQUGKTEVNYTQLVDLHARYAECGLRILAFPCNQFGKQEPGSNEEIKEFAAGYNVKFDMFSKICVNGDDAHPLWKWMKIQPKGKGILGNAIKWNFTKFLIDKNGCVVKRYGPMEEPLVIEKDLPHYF
In words: Induction of GPX4 degradation in human HT-1080 cells at 2 uM after 24 hrs by Western blotting assay. The format is cell-based. On the technique in general: In western blotting, separated proteins are transferred to a membrane and probed.

The target in series [4] is T1, Phospholipid hydroperoxide glutathione peroxidase GPX4 (Homo sapiens). In words: Induction of GPX4 degradation in human HT-1080 cells after 24 hrs by Western blotting assay. The settings on record: dose 1-4 µM. The format is cell-based.
Series [5] deals with HT-1080. Description: Induction of apoptosis in human HT-1080 cells assessed as viable cells at 1 uM incubated for 24 hrs by Annexin-V FITC/PI staining based flow cytometry analysis (reference value: 92.5%). The format is functional. The settings on record: read-out: Activity.
For series [6], the system named is HT-1080. In words: Induction of apoptosis in human HT-1080 cells assessed as early apoptotic cells at 2 uM incubated for 24 hrs by Annexin-V FITC/PI staining based flow cytometry analysis (reference value: 1.85%). The format is functional.
Series [7] deals with HT-1080. In words: Induction of apoptosis in human HT-1080 cells assessed as necrotic cells at 2 uM incubated for 24 hrs by Annexin-V FITC/PI staining based flow cytometry analysis (reference value: 3.98%). The format is functional.
In series [8] the test system is HT-1080. Description: Induction of apoptosis in human HT-1080 cells assessed as viable cells at 4 uM incubated for 24 hrs by Annexin-V FITC/PI staining based flow cytometry analysis (reference value: 92.5%). Conditions: read-out: Activity. The format is functional.
The test system of series [9] is HT-1080. In words: Induction of apoptosis in human HT-1080 cells assessed as early apoptotic cells at 4 uM incubated for 24 hrs by Annexin-V FITC/PI staining based flow cytometry analysis (reference value: 1.85%). The format is functional.
The test system of series [10] is HT-1080. In words: Induction of apoptosis in human HT-1080 cells assessed as late apoptotic cells at 4 uM incubated for 24 hrs by Annexin-V FITC/PI staining based flow cytometry analysis (reference value: 1.66%). The format is functional.
Series [11] deals with HT-1080. In words: Induction of apoptosis in human HT-1080 cells assessed as early apoptosis at 1 to 2 uM incubated for 48 hrs by Annexin-V FITC/PI staining based flow cytometry analysis. The settings on record: dose 1-2 µM. The format is functional, cell-based.
The nature of series [12]: Toxicity in BALB/c nude mouse xenografted with human HT-1080 cells assessed as change in spleen morphology at 20 to 40 mg/kg, ip administered once daily for 19 days and measured every 2 days by H and E staining based assay. The format is organism-based. The settings on record: in vivo, 456 h, dose 20-40 mg/kg, time 19 day. (In general: A xenograft is tissue or cells of one species grown in another, often human tumour cells in immunodeficient mice.)

Series [13] can be described thus: Toxicity in BALB/c nude mouse xenografted with human HT-1080 cells assessed as cellular inflammation at 20 to 40 mg/kg, ip administered once daily for 19 days and measured every 2 days by H and E staining based assay. The settings on record: in vivo, 456 h, dose 20-40 mg/kg, time 19 day. The format is organism-based.
Series [14] in a line: Toxicity in BALB/c nude mouse xenografted with human HT-1080 cells assessed as edema at 20 to 40 mg/kg, ip administered once daily for 19 days and measured every 2 days by H and E staining based assay. The format is organism-based. The settings on record: in vivo, 456 h, dose 20-40 mg/kg, time 19 day.
Series [15] relates to AMG 510-resistant MIA PaCa-2. Description: Cytotoxicity against human AAMG 510-resistant MIA PaCa-2 cells at 10 uM. The format is functional, cell-based.
Series [16] can be described thus: Potentiation of AMG510 induced cytotoxicity in human AMG 510-resistant MIA PaCa-2 cells assessed as reduction in cell survival rate at 1 uM in presence of 10 nM AMG510 (reference value: 90%). The format is functional.

The source made the active and inactive calls. The rule behind the calls is not given here.

On to `O=C(CCCCCNC1=CC(=O)c2ccccc2C1=O)Nc1ccc(N(C(=O)CCl)C(C(=O)NCCc2ccccc2)c2cccs2)cc1` (stereo unspecified), for which the result (in the series on HT-1080 [1]; in the series on HT-1080 [2]; in [3]; with HT-1080 [11]; in series [15]) was Active. Further, the Activity entry is “Dose-Dependent Effect” in [4]; 8.48% with HT-1080 [6]; 4.02% in the series on HT-1080 [7]; 9.04% in the series on HT-1080 [9]; 7.99% in the series on HT-1080 [10]; “Non-Toxic” in [12]. The Activity entry in series [13] was “Non-Toxic”; in series [14], “Non-Toxic”; in [16], about 60%. In addition, the viability at 1 µM in the series with HT-1080 [5] is 90.7%. Further, the viability at 4 µM with HT-1080 [8] was determined as 79.9%.
